Our source for the IC50 values is PubChem BioAssay AID588355 (Sanford-Burnham Center for Chemical Genomics, 2011).

The target in this test is Hexokinase HKDC1 (Homo sapiens) (UniProt Q2TB90). In words: HKDC1 hexokinase inhibitors, SAR follow-up, biochemical, set 2 (AID 588355). The conditions noted are these: recombinant HKDC1, G6PDH/diaphorase/resazurin coupled fluorescence. (In general: Alamar Blue is a resazurin reagent that responds to reducing activity.)

Activity calls are given as the source filed them.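 Rule for the calls: active = IC50 below 20 µM in the confirmatory dose-response test; inactive = the rest.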

Hexokinase HKDC1 (Homo sapiens), sequence (Q2TB90 whole entry, looked up): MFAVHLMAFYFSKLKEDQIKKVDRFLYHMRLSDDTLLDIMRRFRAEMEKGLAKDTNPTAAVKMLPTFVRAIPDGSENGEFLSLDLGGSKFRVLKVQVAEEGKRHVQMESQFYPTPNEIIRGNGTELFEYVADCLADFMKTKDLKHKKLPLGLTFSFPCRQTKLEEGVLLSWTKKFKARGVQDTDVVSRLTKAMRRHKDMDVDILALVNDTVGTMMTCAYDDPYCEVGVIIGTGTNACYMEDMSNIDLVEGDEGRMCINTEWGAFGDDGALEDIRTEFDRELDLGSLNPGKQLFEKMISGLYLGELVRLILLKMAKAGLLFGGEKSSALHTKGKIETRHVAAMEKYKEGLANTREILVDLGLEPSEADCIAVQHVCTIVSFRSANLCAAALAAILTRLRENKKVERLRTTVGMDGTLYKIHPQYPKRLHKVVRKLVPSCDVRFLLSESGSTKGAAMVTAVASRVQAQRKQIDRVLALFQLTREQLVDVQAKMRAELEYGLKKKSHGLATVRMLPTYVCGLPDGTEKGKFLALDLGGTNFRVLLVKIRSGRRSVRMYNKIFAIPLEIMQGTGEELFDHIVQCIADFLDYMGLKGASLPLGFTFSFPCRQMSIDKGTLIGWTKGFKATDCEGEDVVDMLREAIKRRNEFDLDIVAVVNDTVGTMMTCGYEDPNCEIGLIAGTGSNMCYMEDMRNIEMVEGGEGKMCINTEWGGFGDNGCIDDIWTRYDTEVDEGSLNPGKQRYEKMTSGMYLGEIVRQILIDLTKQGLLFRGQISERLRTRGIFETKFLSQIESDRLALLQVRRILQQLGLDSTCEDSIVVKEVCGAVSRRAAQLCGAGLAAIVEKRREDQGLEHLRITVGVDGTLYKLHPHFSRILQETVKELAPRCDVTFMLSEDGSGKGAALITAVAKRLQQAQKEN

As to `COc1cc2c(cc1OC)-c1cc(N3CCc4ccccc4C3)nc(=O)n1CC2`, the IC50 result was “inactive”.
